In ChEMBL document CHEMBL6103588, “Promising thiazolidinedione-thiazole based multi-target and neuroprotective hybrids for Alzheimer's disease: Design, synthesis, in-vitro, in-vivo and in-silico studies” (Eur J Med Chem, 2025):
Activity calls are given as the source filed them. The calls are words filed in the database; no cut-off is given here.

Tests used:
[1] = Neurotoxicity against human SH-SY5Y cells assessed as reduction in cell viability at 100 uM incubated for 24 hrs by MTT assay; format: toxicity, cell-based
[2] = Acute toxicity in male Swiss albino mouse assessed as signs of pain at 1500 mg/kg BW, po administered as single dose via gavage measured after 48 hrs by up-and-down method; format: organism-based; conditions: in vivo
[3] = Acute toxicity in male Swiss albino mouse assessed as survival time at 450 mg/kg BW, po administered as single dose via gavage by up-and-down method; format: organism-based; conditions: in vivo
[4] = Acute toxicity in male Swiss albino mouse assessed as ataxia at 1200 mg/kg BW, po administered as single dose via gavage measured after 20 mins by up-and-down method; format: organism-based; conditions: in vivo
[5] = target: Prostaglandin G/H synthase 1 (Homo sapiens, UniProt P23219); conditions: read-out: IC50
Prostaglandin G/H synthase 1, sequence (P23219 whole entry): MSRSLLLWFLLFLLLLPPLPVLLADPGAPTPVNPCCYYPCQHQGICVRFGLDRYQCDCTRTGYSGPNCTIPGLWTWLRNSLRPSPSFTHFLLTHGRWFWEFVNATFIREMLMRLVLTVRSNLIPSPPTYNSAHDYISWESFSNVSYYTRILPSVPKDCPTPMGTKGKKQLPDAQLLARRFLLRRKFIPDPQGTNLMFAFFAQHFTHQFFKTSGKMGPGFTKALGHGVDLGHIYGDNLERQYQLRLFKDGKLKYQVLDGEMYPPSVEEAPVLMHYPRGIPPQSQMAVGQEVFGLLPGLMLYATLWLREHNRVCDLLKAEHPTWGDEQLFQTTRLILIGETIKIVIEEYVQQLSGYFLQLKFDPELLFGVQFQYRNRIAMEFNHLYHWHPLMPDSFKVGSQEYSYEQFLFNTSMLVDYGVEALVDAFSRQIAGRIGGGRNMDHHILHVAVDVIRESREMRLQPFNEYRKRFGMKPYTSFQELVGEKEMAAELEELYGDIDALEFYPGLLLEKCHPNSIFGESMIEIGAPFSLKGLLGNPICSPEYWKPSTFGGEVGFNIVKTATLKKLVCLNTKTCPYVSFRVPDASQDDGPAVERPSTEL

[6] = Acute toxicity in male Swiss albino mouse assessed as mortality rate at 1500 mg/kg BW, po administered as single dose via gavage measured after 48 hrs by up-and-down method relative to control; format: organism-based; conditions: in vivo
[7] = Acute toxicity in male Swiss albino mouse assessed as mortality rate at 900 mg/kg BW, po administered as single dose via gavage measured after 48 hrs by up-and-down method relative to control; format: organism-based; conditions: in vivo
[8] = Acute toxicity in male Swiss albino mouse assessed as seizures at 1200 mg/kg BW, po administered as single dose via gavage measured after 20 mins by up-and-down method; format: organism-based; conditions: in vivo
[9] = Acute toxicity in male Swiss albino mouse assessed as survival time at 1200 mg/kg BW, po administered as single dose via gavage by up-and-down method; format: organism-based; conditions: in vivo
[10] = test system: PC-12; assay: Neuroprotective activity against H2O2-induced rat PC12 cells assessed as protection against H2O2-induced oxidative stress by measuring cell viability at 25 uM pretreated for 24 hr followed by H2O2 addition and measured after 24 hrs by MTT reagent based spectrophotometric analysis (reference value: 47.32 %); format: functional; conditions: time 48 hrs
[11] = Acute toxicity in male Swiss albino mouse assessed as signs of pain at 1200 mg/kg BW, po administered as single dose via gavage measured after 20 mins by up-and-down method; format: organism-based; conditions: in vivo
[12] = target: T1, Amine oxidase [flavin-containing] B (Homo sapiens, UniProt P27338); assay: Inhibition of human MAO-B using tyramine/benzylamine as substrate measured after 30 mins by fluorometric assay
T1 sequence (P27338 whole entry): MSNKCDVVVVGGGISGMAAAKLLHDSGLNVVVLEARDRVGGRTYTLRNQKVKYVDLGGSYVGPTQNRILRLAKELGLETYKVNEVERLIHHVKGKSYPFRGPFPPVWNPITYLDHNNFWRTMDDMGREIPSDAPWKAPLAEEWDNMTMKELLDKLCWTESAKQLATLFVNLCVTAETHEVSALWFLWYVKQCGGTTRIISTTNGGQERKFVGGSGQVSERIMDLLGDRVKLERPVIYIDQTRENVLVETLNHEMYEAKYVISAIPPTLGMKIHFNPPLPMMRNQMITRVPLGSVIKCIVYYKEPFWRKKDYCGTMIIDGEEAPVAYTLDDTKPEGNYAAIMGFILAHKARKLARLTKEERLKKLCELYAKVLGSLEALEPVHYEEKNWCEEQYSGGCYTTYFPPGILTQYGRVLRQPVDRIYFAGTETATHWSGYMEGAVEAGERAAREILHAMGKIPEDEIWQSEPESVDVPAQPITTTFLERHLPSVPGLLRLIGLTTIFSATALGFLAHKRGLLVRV

[13] = target: Beta-secretase 1 (Homo sapiens, UniProt P56817); assay: Inhibition of BACE-1 (unknown origin) 667-676- (2, 4-dinitrophenyl) Lys-Arg-Arg amide trifluoroacetate as substrate preincubated for 15 mins followed by substrate addition and measured after 2 hrs by fluorescence spectrometric analysis; conditions: read-out: IC50
Beta-secretase 1, sequence (P56817 whole entry): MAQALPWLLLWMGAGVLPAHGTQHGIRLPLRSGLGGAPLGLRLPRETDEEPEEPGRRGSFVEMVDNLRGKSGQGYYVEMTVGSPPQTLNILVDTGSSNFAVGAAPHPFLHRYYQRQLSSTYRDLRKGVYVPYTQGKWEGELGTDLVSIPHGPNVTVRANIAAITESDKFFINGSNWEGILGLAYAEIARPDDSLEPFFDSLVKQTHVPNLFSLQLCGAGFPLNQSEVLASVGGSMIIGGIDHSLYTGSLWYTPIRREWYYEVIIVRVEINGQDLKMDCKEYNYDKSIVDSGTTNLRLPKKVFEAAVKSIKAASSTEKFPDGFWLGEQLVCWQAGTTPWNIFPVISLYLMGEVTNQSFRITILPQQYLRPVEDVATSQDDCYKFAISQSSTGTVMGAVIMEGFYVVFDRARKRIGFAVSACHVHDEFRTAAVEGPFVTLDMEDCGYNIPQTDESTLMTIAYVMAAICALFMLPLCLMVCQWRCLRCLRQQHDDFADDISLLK

[14] = Acute toxicity in male Swiss albino mouse assessed as signs of distress at 1500 mg/kg BW, po administered as single dose via gavage measured after 48 hrs by up-and-down method; format: organism-based; conditions: in vivo
[15] = test system: Mus musculus; assay: Antioxidant activity against scopolamine-induced Albino mouse assessed as increase in SOD level in brain at 5 mg/kg measured after 24 hrs; format: functional
[16] = Acute toxicity in male Swiss albino mouse assessed as piloerection at 450 mg/kg BW, po administered as single dose via gavage measured after 1 hrs by up-and-down method; format: organism-based; conditions: in vivo
[17] = target: T2, Polyunsaturated fatty acid 5-lipoxygenase (Homo sapiens, UniProt P09917); assay: Inhibition of 5-LOX (unknown origin) using linoleic acid as substrate incubated for 5 mins followed by substrate addition
T2 sequence (P09917 whole entry): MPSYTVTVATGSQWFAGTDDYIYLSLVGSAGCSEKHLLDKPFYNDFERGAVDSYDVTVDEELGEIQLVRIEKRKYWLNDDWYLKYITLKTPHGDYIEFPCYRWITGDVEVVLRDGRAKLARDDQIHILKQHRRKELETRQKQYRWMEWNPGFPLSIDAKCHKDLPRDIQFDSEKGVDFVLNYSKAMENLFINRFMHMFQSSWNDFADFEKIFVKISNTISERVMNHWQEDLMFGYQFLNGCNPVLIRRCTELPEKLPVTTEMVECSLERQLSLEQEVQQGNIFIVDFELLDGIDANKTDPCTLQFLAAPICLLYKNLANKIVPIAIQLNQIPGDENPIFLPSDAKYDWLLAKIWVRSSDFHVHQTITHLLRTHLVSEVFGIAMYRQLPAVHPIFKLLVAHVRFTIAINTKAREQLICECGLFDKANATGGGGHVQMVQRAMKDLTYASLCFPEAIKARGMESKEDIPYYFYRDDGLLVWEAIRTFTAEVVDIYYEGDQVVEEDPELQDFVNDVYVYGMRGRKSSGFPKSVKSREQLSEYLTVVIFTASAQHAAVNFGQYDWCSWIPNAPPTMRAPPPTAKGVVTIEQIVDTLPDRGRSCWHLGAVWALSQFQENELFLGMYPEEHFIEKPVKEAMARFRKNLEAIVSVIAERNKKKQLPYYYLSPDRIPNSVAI

[18] = Acute toxicity in male Swiss albino mouse assessed as lethargy at 450 mg/kg BW, po administered as single dose via gavage measured after 1 hrs by up-and-down method; format: organism-based; conditions: in vivo
[19] = Acute toxicity in male Swiss albino mouse assessed as lethargy at 1200 mg/kg BW, po administered as single dose via gavage measured after 20 mins by up-and-down method; format: organism-based; conditions: in vivo
[20] = Acute toxicity in male Swiss albino mouse assessed as survival time at 50 mg/kg BW, po administered as single dose via gavage by up-and-down method; format: organism-based; conditions: in vivo
[21] = test system: Mus musculus; assay: Antioxidant activity against scopolamine-induced Albino mouse assessed as increase in catalase activity in brain at 5 mg/kg measured after 24 hrs; format: functional, organism-based
[22] = Acute toxicity in male Swiss albino mouse assessed as mortality rate at 1200 mg/kg BW, po administered as single dose via gavage measured after 48 hrs by up-and-down method relative to control; format: organism-based; conditions: in vivo
[23] = target: Cholinesterase (Equus caballus, UniProt P81908); assay: Inhibition of equine serum BuChE using butyrylthiocholine iodide as substrate pre-incubated for 10 mins followed by substrate addition and measured after 15 mins by DTNB reagent based Ellman's method
Cholinesterase, sequence (P81908 whole entry): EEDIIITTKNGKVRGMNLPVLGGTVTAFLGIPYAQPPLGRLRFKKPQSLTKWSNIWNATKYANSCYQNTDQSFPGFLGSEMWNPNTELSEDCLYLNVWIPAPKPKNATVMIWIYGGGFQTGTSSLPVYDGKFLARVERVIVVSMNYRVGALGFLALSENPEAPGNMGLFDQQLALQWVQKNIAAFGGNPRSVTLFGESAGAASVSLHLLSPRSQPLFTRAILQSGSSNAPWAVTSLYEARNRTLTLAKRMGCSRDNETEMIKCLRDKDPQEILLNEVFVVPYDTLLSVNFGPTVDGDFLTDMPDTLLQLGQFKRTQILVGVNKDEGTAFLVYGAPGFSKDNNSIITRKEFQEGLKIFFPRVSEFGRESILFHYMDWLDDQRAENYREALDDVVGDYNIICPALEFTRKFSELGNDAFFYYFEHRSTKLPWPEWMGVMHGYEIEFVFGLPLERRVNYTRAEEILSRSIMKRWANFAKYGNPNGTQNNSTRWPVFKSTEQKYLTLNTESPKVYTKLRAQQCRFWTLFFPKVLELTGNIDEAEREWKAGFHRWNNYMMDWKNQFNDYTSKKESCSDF

Question: With `COc1cc(/C=C/C(=O)Nc2ccc3sc(NCN4C(=O)CSC4=O)nc3c2)ccc1O` as the compound, how does the Activity [1] read?
Answer: The Activity was “Toxic”.

Question: What about the Activity [2] of the same compound?
Answer: The Activity was “Toxic”.

Question: What about the Time [3] of the same compound?
Answer: Its Time is greater than 48 h.

Question: What about the Activity [4] of the same compound?
Answer: The Activity was “Toxic”.

Question: What about the IC50 [5] of the same compound?
Answer: Its IC50 is 60400 nM.

Question: And the mortality at 48 h [6]?
Answer: The mortality at 48 h was 100%.

Question: And the mortality at 48 h [7]?
Answer: Its mortality at 48 h is 66.7%.

Question: And the Activity [8]?
Answer: The Activity was “Toxic”.

Question: What about the Time [9] of the same compound?
Answer: The Time was 40 min.

Question: What about the Activity [10] of the same compound?
Answer: The Activity was 83.01%.

Question: And the Activity [11]?
Answer: Its Activity is “Toxic”.

Question: And the IC50 [12]?
Answer: Its IC50 is 24 nM.

Question: What about the IC50 [13] of the same compound?
Answer: The IC50 was 2420 nM.

Question: And the Activity [14]?
Answer: Its Activity is “Toxic”.

Question: And the Activity [15]?
Answer: Its Activity is 95.03 U/ml.

Question: What about the Activity [16] of the same compound?
Answer: The Activity was “Toxic”.

Question: What about the IC50 [17] of the same compound?
Answer: The IC50 was 180 nM.

Question: And the Activity [18]?
Answer: Its Activity is “Toxic”.

Question: And the Activity [19]?
Answer: The Activity was “Toxic”.

Question: And the Time [20]?
Answer: Its Time is greater than 48 h.

Question: What about the Activity [21] of the same compound?
Answer: The Activity was “Active”.

Question: And the mortality at 48 h [22]?
Answer: The mortality at 48 h was 80%.

Question: What about the IC50 [23] of the same compound?
Answer: Its IC50 is 9810 nM.
